Experiments:
[1] = test system: Echinochloa oryzoides (Ard.) Fritsch.; experiment: Preemergence weed control under flooded paddy conditions, ECHORC (Watergrass (Calif.)); type: in vivo; details: flooded paddy, rated three to four weeks after treatment; for herbicidal effect rating, ECHORC: preemergence weeds; for ECHORC herbicidal effect rating: preemergence; for herbicidal effect rating, ECHORC: meaning of each grade not given here
Cyperus iria = experiment: Preemergence weed control under flooded paddy conditions, CYPIR (Rice Flatsedge); type: in vivo; details: flooded paddy, rated three to four weeks after treatment; for herbicidal effect rating, CYPIR: preemergence weeds; for CYPIR herbicidal effect rating: preemergence; for herbicidal effect rating, CYPIR: meaning of each grade not given here
[2] = test system: Cyperus serotinus, Rottb.; experiment: Preemergence weed control under flooded paddy conditions, CYPSE (Flatsedge); type: in vivo; details: rated three to four weeks after treatment; for herbicidal effect rating, CYPSE: preemergence weeds; for CYPSE herbicidal effect rating: preemergence; for herbicidal effect rating, CYPSE: meaning of each grade not given here
[3] = test system: Monochoria vaginalis, Presl.; experiment: Preemergence weed control under flooded paddy conditions, MOOVA (Monochoria); type: in vivo; details: flooded paddy, rated three to four weeks after treatment; for herbicidal effect rating, MOOVA: preemergence weeds; for MOOVA herbicidal effect rating: preemergence; for herbicidal effect rating, MOOVA: meaning of each grade not given here
Sagittaria pygmaea, L. = experiment: Preemergence weed control under flooded paddy conditions, SAGPY (Arrowhead (Pygmaea)); type: in vivo; details: flooded paddy, rated three to four weeks after treatment; for herbicidal effect rating, SAGPY: preemergence weeds; for SAGPY herbicidal effect rating: preemergence; for herbicidal effect rating, SAGPY: meaning of each grade not given here
[4] = test system: Oryza sativa, (L.) Tebonnet; experiment: Rice tolerance to post-transplant applications under flooded paddy conditions (Example 187), ORYSAT (Rice, Tebonnet); details: rated three to four weeks after treatment

CN(O)C(=O)COc1ccccc1-c1nsc2ccc(-n3c(=O)cc(C(F)(F)F)n(C)c3=O)cc12 [Example 336, Acetohydroxamic acid, 2-{o-{5-[3,6-dihydro-3-methyl-2,6-dioxo-4-(trifluoromethyl)-1(2H)-pyrimidinyl]-1,2-benzisothiazol-3-yl}phenoxy}-N-methyl-]
herbicidal effect rating, ECHORC ([1]; Rate 0.0320 kg/ha): 6.5
herbicidal effect rating, ECHORC ([1]; Rate 0.0620 kg/ha): 9.0
herbicidal effect rating, ECHORC ([1]; Rate 0.1250 kg/ha): 9.0
herbicidal effect rating, ECHORC ([1]; Rate 0.2500 kg/ha): 9.0
herbicidal effect rating, CYPIR (Cyperus iria; Rate 0.0320 kg/ha): 0.0
herbicidal effect rating, CYPIR (Cyperus iria; Rate 0.0620 kg/ha): 1.0
herbicidal effect rating, CYPIR (Cyperus iria; Rate 0.1250 kg/ha): 4.0
herbicidal effect rating, CYPIR (Cyperus iria; Rate 0.2500 kg/ha): 9.0
herbicidal effect rating, CYPSE ([2]; Rate 0.0320 kg/ha): 0.0
herbicidal effect rating, CYPSE ([2]; Rate 0.0620 kg/ha): 0.0
herbicidal effect rating, CYPSE ([2]; Rate 0.1250 kg/ha): 2.0
herbicidal effect rating, CYPSE ([2]; Rate 0.2500 kg/ha): 3.0
herbicidal effect rating, MOOVA ([3]; Rate 0.0320 kg/ha): 9.0
herbicidal effect rating, MOOVA ([3]; Rate 0.0620 kg/ha): 9.0
herbicidal effect rating, MOOVA ([3]; Rate 0.1250 kg/ha): 9.0
herbicidal effect rating, MOOVA ([3]; Rate 0.2500 kg/ha): 9.0
herbicidal effect rating, SAGPY (Sagittaria pygmaea, L.; Rate 0.0320 kg/ha): 0.0
herbicidal effect rating, SAGPY (Sagittaria pygmaea, L.; Rate 0.0620 kg/ha): 0.0
herbicidal effect rating, SAGPY (Sagittaria pygmaea, L.; Rate 0.1250 kg/ha): 1.0
herbicidal effect rating, SAGPY (Sagittaria pygmaea, L.; Rate 0.2500 kg/ha): 9.0
herbicidal effect rating ORYSAT ([4]; Rate 0.0320 kg/ha): 2.0
herbicidal effect rating ORYSAT ([4]; Rate 0.0620 kg/ha): 4.5
herbicidal effect rating ORYSAT ([4]; Rate 0.1250 kg/ha): 4.5
herbicidal effect rating ORYSAT ([4]; Rate 0.2500 kg/ha): 9.0

Cn1c(C(F)(F)F)cc(=O)n(-c2ccc3snc(-c4ccc(OCC(=O)OC(C)(C)C)cc4)c3c2)c1=O [Example 273, Acetic acid, {p-{5-[3,6-dihydro-3-methyl-2,6-dioxo-4-(trifluoromethyl)-1(2H)-pyrimidinyl]-1,2-benzisothiazol-3-yl}phenoxy}-, tert-butyl ester]
ECHORC herbicidal effect rating ([1]; Rate 0.0320 kg/ha): 3.9
ECHORC herbicidal effect rating ([1]; Rate 0.0620 kg/ha): 5.1
ECHORC herbicidal effect rating ([1]; Rate 0.1250 kg/ha): 6.0
ECHORC herbicidal effect rating ([1]; Rate 0.2500 kg/ha): 9.0
ECHORC herbicidal effect rating ([1]; Rate 0.5000 kg/ha): 9.0
CYPIR herbicidal effect rating (Cyperus iria; Rate 0.0320 kg/ha): 6.0
CYPIR herbicidal effect rating (Cyperus iria; Rate 0.0620 kg/ha): 9.0
CYPIR herbicidal effect rating (Cyperus iria; Rate 0.1250 kg/ha): 9.0
CYPIR herbicidal effect rating (Cyperus iria; Rate 0.2500 kg/ha): 9.0
CYPIR herbicidal effect rating (Cyperus iria; Rate 0.5000 kg/ha): 4.0
CYPSE herbicidal effect rating ([2]; Rate 0.0320 kg/ha): 0.0
CYPSE herbicidal effect rating ([2]; Rate 0.0620 kg/ha): 0.0
CYPSE herbicidal effect rating ([2]; Rate 0.2500 kg/ha): 7.0
CYPSE herbicidal effect rating ([2]; Rate 0.5000 kg/ha): 9.0
MOOVA herbicidal effect rating ([3]; Rate 0.0320 kg/ha): 9.0
MOOVA herbicidal effect rating ([3]; Rate 0.0620 kg/ha): 9.0
MOOVA herbicidal effect rating ([3]; Rate 0.1250 kg/ha): 9.0
MOOVA herbicidal effect rating ([3]; Rate 0.2500 kg/ha): 9.0
MOOVA herbicidal effect rating ([3]; Rate 0.5000 kg/ha): 9.0
SAGPY herbicidal effect rating (Sagittaria pygmaea, L.; Rate 0.0320 kg/ha): 0.0
SAGPY herbicidal effect rating (Sagittaria pygmaea, L.; Rate 0.0620 kg/ha): 0.0
SAGPY herbicidal effect rating (Sagittaria pygmaea, L.; Rate 0.1250 kg/ha): 0.0
SAGPY herbicidal effect rating (Sagittaria pygmaea, L.; Rate 0.2500 kg/ha): 6.0
SAGPY herbicidal effect rating (Sagittaria pygmaea, L.; Rate 0.5000 kg/ha): 0.0
ORYSAT herbicidal effect rating ([4]; Rate 0.0320 kg/ha): 0.0
ORYSAT herbicidal effect rating ([4]; Rate 0.0620 kg/ha): 2.0
ORYSAT herbicidal effect rating ([4]; Rate 0.1250 kg/ha): 3.0
ORYSAT herbicidal effect rating ([4]; Rate 0.2500 kg/ha): 4.0
ORYSAT herbicidal effect rating ([4]; Rate 0.5000 kg/ha): 3.0

Cc1ccc(OCC(=O)NS(=O)(=O)c2sc3ccc(Cl)cc3c2C)c(-c2nsc3ccc(-n4c(=O)cc(C(F)(F)F)n(C)c4=O)cc23)c1 [Example 290, Acetamide, N-[(5-chloro-3-methylbenzo[b]thien-2-yl)sulfonyl]-2-{{2-{5-[3,6-dihydro-3-methyl-2,6-dioxo-4-(trifluoromethyl)-1(2H)-pyrimidinyl]-1,2-benzisothiazol-3-yl}-p-tolyl}oxy}-]
ECHORC herbicidal effect rating ([1]; Rate 0.0320 kg/ha): 0.0
ECHORC herbicidal effect rating ([1]; Rate 0.0620 kg/ha): 0.0
ECHORC herbicidal effect rating ([1]; Rate 0.1250 kg/ha): 3.0
ECHORC herbicidal effect rating ([1]; Rate 0.2500 kg/ha): 7.0
CYPIR herbicidal effect rating (Cyperus iria; Rate 0.0320 kg/ha): 6.0
CYPIR herbicidal effect rating (Cyperus iria; Rate 0.0620 kg/ha): 6.0
CYPIR herbicidal effect rating (Cyperus iria; Rate 0.1250 kg/ha): 6.0
CYPIR herbicidal effect rating (Cyperus iria; Rate 0.2500 kg/ha): 6.0
CYPSE herbicidal effect rating ([2]; Rate 0.0320 kg/ha): 0.0
CYPSE herbicidal effect rating ([2]; Rate 0.0620 kg/ha): 0.0
CYPSE herbicidal effect rating ([2]; Rate 0.1250 kg/ha): 0.0
CYPSE herbicidal effect rating ([2]; Rate 0.2500 kg/ha): 0.0
MOOVA herbicidal effect rating ([3]; Rate 0.0320 kg/ha): 0.0
MOOVA herbicidal effect rating ([3]; Rate 0.0620 kg/ha): 7.0
MOOVA herbicidal effect rating ([3]; Rate 0.1250 kg/ha): 7.0
MOOVA herbicidal effect rating ([3]; Rate 0.2500 kg/ha): 7.0
SAGPY herbicidal effect rating (Sagittaria pygmaea, L.; Rate 0.0320 kg/ha): 0.0
SAGPY herbicidal effect rating (Sagittaria pygmaea, L.; Rate 0.0620 kg/ha): 0.0
SAGPY herbicidal effect rating (Sagittaria pygmaea, L.; Rate 0.1250 kg/ha): 0.0
SAGPY herbicidal effect rating (Sagittaria pygmaea, L.; Rate 0.2500 kg/ha): 0.0
ORYSAT herbicidal effect rating ([4]; Rate 0.0320 kg/ha): 0.0
ORYSAT herbicidal effect rating ([4]; Rate 0.0620 kg/ha): 0.0
ORYSAT herbicidal effect rating ([4]; Rate 0.1250 kg/ha): 0.0
ORYSAT herbicidal effect rating ([4]; Rate 0.2500 kg/ha): 0.0

COC(=O)/C=C/c1nsc2ccc(-n3c(=O)cc(C(F)(F)F)n(C)c3=O)cc12 [Example 279, 1,2-Benzisothiazole-3-acrylic acid, 5-[3,6-dihydro-3-methyl-2,6-dioxo-4-(trifluoromethyl)-1(2H)-pyrimidinyl]-, methyl ester, (E)-]
ECHORC herbicidal effect rating ([1]; Rate 0.0320 kg/ha): 0.0
ECHORC herbicidal effect rating ([1]; Rate 0.0620 kg/ha): 5.7
ECHORC herbicidal effect rating ([1]; Rate 0.1250 kg/ha): 6.1
ECHORC herbicidal effect rating ([1]; Rate 0.2500 kg/ha): 6.0
ECHORC herbicidal effect rating ([1]; Rate 0.5000 kg/ha): 7.0
CYPIR herbicidal effect rating (Cyperus iria; Rate 0.0320 kg/ha): 0.0
CYPIR herbicidal effect rating (Cyperus iria; Rate 0.0620 kg/ha): 0.0
CYPIR herbicidal effect rating (Cyperus iria; Rate 0.1250 kg/ha): 2.0
CYPIR herbicidal effect rating (Cyperus iria; Rate 0.2500 kg/ha): 6.0
CYPIR herbicidal effect rating (Cyperus iria; Rate 0.5000 kg/ha): 9.0
CYPSE herbicidal effect rating ([2]; Rate 0.0320 kg/ha): 0.0
CYPSE herbicidal effect rating ([2]; Rate 0.0620 kg/ha): 0.0
CYPSE herbicidal effect rating ([2]; Rate 0.1250 kg/ha): 0.0
CYPSE herbicidal effect rating ([2]; Rate 0.5000 kg/ha): 5.0
MOOVA herbicidal effect rating ([3]; Rate 0.1250 kg/ha): 8.0
MOOVA herbicidal effect rating ([3]; Rate 0.2500 kg/ha): 9.0
MOOVA herbicidal effect rating ([3]; Rate 0.5000 kg/ha): 9.0
SAGPY herbicidal effect rating (Sagittaria pygmaea, L.; Rate 0.0320 kg/ha): 0.0
SAGPY herbicidal effect rating (Sagittaria pygmaea, L.; Rate 0.0620 kg/ha): 0.0
SAGPY herbicidal effect rating (Sagittaria pygmaea, L.; Rate 0.1250 kg/ha): 0.0
SAGPY herbicidal effect rating (Sagittaria pygmaea, L.; Rate 0.2500 kg/ha): 4.0
SAGPY herbicidal effect rating (Sagittaria pygmaea, L.; Rate 0.5000 kg/ha): 9.0
ORYSAT herbicidal effect rating ([4]; Rate 0.0320 kg/ha): 2.0
ORYSAT herbicidal effect rating ([4]; Rate 0.0620 kg/ha): 3.0
ORYSAT herbicidal effect rating ([4]; Rate 0.1250 kg/ha): 4.0
ORYSAT herbicidal effect rating ([4]; Rate 0.2500 kg/ha): 4.0
ORYSAT herbicidal effect rating ([4]; Rate 0.5000 kg/ha): 6.0
